Data as given in patent US20250009743A1, “METHODS OF TREATING CANCERS USING STING AGONISTS” (Dana-Farber Cancer Institute, Inc., priority 2021, published 2025).
pIC50: −log10 of the molar value.

What was measured:
[1] = system: myeloid cells (CD45^+CD11b^+) in ascites of PBM-R tumor-bearing mice; test: Myeloid cells in ascites of PBM-R tumor-bearing mice (transcriptome, flow cytometry); format: in vivo, mouse; conditions: 24 hours treatment
Description: Tumors were chopped and digested in collagenase buffer as described previously (Ding et al., 2018 Cell Rep 25, 2972-2980.e2975). Single cell suspensions of tumor and ascites were obtained by filtering through 70 um strainers and treated with 1× eBioscience RBC lysis buffer (Thermo Fisher) before staining. Single cells suspensions were incubated with LIVE/DEAD Fixable Aqua Dead Cell Stain (Life Technologies, Cat #L34965) for 30 min and then blocked with anti-CD16/32 (Biolegend, clone 93) for 20 min on ice. Samples were then incubated with appropriate antibodies for 30 min on ice. Foxp3 staining buffer set (eBioscience, Cat #00-5523-00) was applied for intracellular markers staining. For the intracellular cytokine analysis, cells were stimulated with Leukocyte Activation Cocktail (BD Biosciences, Cat #550583) at 37° C. for 4-6 hours prior to FACS staining. The following antibodies were used in this study: antibodies were purchased from BioLegend unless otherwise indicated: CD45 (clone 30-F11), CD3ε (clone 145-2C11), CD4 (clone RM4-5), CD8 (clone 53-6.7), CD44 (clone IM7), CD62L (MEL-14), CD25 (PC61), IFNγ (clone XMG1.2), TNFα (clone MP6-XT22), CD11b (clone M1/70), CD11c […], F4/80 (clone BM8), Ly-6C (clone HK1.4), Ly-6G (clone 1A8), MHC-II (clone M5/114.15.2), CD80 (clone 16-10A1), CD86 (clone GL-1), MHC-I (clone KH114), FoxP3 (clone FJK-16 s; eBioscience), Phospho-IRF-3 (Ser396) (clone D601M, Cell signaling technology) and Phospho-TBK1/NAK (Ser172) (clone D52C2, Cell signaling technology). The following human antibodies were used in this study: cell surface markers includes CD45 (clone H130), CD11b (clone M1/70), CD11c (clone Bu15), CD80 (clone 2D10), CD86 (clone IT2.2), CD14 (clone 63D3), CD15 […], HLA-DR (clone L243) and HLA-A,B,C (clone W6/32); intracellular markers include CD163 (clone GHI/61), CD68 (clone Y1/82A) and CD206 (clone 15-2). Flow cytometry was performed on an LSRII (BD Biosciences) or Fortessa HTS (BD Biosciences) at DFCI Flow Cytometry Core, and all the data were analyzed using FlowJo software.
Transcriptome analysis of myeloid cells: about 1 x10^6 PBM-R tumor cells were intraperitoneally injected to FVB/NJ mice. About 2-3 weeks after injection, mice were grouped and treated with control, olaparib, MSA-2 and […] for 24 hrs. After treatment, myeloid cells (CD45^+CD11b^+) were isolated from the ascites of each mouse (n=3 per group). Total RNAs was isolated and sequenced on the Ion Torrent platform (Thermo Fisher) that described above using the Ion AmpliSeq Transcriptome Mouse Gene Expression Panel. Gene ontology (GO) analysis of DEGs was performed using topGO package in R. GSEA analysis was performed as described above. Heat maps illustrating changes in gene expression were generated using the heatmap.3 package in R.

[2] = system: PE tumors; test: PE (exon19del/T790M EGFR, Trp53 loss) tumor growth in FVB mice; format: in vivo, mouse; conditions: start at about 400 mm^3; osimertinib 10 mg/kg daily by gavage; MSA-2 20 mg/kg i.p. every three days; FIG. 30A
[3] = system: PBM tumor cells; test: Cytokine array of medium of PBM cells; format: cell-based, mouse; conditions: olaparib-treated PBM cells; FIG. 19F
Description: The PBM tumor cells were cultured in 6-well plate for 24 hrs and treated with olaparib or vehicle control. Drug was removed after 24 hrs' treatment, and cells were cultured in fresh medium for another 48 hrs. Cell culture supernatants were obtained by centrifugation at 1,500 g for 5 min at 4° C. to remove all the debris and cells then subjected to Cytokine array analysis (ARY028, R&D system) according to manufactories introduction. Briefly, the cell culture supernatants were mixed with a cocktail of biotinylated detection antibodies, and then incubated with the Mouse Cytokine Array. The array was then incubated with streptavidin-horseradish peroxidase followed by chemiluminescent detection. Array images were analyzed using the Image J software.

[4] = system: PBM-R tumor cells; test: Measurement of IC50 value in PBM-R tumor cells (CellTiter-Glo); format: cell-based, mouse
Description: Tumor cells were seeded in 96-well plates at a density of 2000-3000/well and allowed to adhere overnight. Cells were then exposed to appropriate concentrations of therapeutic agents (or vehicle control) with continuous exposure for 72 h. Growth inhibition was measured by CellTiter-Glo® 2.0 Cell Viability Assay from Promega according to manufactory's introduction. IC50 values were calculated using non-linear regression model (logarithmic inhibitor vs. normalized response-variable slope) in Graphpad Prism 9.

[5] = system: BP tumor cells; test: Pro-inflammatory cytokine expression in BP tumor cells (RT-qPCR, IFNβ ELISA); format: cell-based, mouse; conditions: olaparib two days
Description: Total RNA was extracted using RNeasy® Plus Mini Kit (QIAGEN, #74134). An iScript Reverse Transcription Supermix (Bio-Rad, #1708841) was used for the first-strand cDNA synthesis with 1 μg total RNA. Real-time PCR was performed using SYBR™ Select Master Mix (Thermo Fisher, #4472908) with gene-specific primers (mouse/16, forward 5′-[…]-3′, reverse 5′-[…]-3′; mouse//1b, forward 5′-[…]-3′, reverse 5′-[…]-3′; mouse Cxcl1, forward 5′-[…]-3′, reverse 5′-[…]-3′; mouse Ifnb, forward 5′-[…]-3′, reverse 5′-[…]-3′; mouse Ccl5, forward 5′-[…]-3′, reverse 5′-[…]-3′; mouse Cxcl10, forward 5′-[…]-3′, reverse 5′-[…]-3′; mouse Actb, forward 5′-[…]-3′, reverse 5′-[…]-3′; human IL6, forward 5′-[…]-3′, reverse 5′-[…]-3′; human IL1B, forward 5′-[…]-3′, reverse 5′-[…]-3′; human CXCL1, forward 5′-[…]-3′, reverse 5′-[…]-3′; human GAPDH, forward 5′-[…]-3′, reverse 5′-[…]-3′). Relative mRNA levels were calculated using the […]. Mouse Actb and human GAPDH were used as endogenous controls for mouse and human samples, respectively.
Tumor cells were treated with olaparib or DMSO vehicle control for two days. To assess IFNβ production by tumor cells, cell culture supernatants were harvested and subjected to centrifugation at 1,500×g for 10 min at 4° C. to remove floating cells and debris. IFNβ was then detected via mouse IFNβ ELISA Kit (Thermo Fisher, #424001) according to manufacturer's instructions.

SMILES	cGAS-STING pathway gene signature in myeloid cells ([1]; vs control mice)	expression of M1-like/anti-tumorigenic genes ([1]; FIG. 21D)	expression of genes associated with antigen processing and presentation ([1]; FIG. 21D)	expression of genes associated with pro-tumorigenic M2 polarization ([1]; FIG. 21D)	population of TAMs in ascites ([1]; FIG. 21F)	population of CD11b^+CD11c^+ myeloid DCs in ascites ([1]; FIG. 21G)	PE tumor growth [2]	STAT3-regulated chemokines (CCL2, CX3CL1, CCL20 and CXCL1) in CM [3]	IC50 values of 11 out of 12 PBM-R tumor lines ([4]; 11 out of 12 PBM-R lines sensitive in vitro, FIG. 15C)	pIC50 ([4]; Mus musculus, PBM-R3 tumor cells, 72 h, FIG. 15C)	IC50 fold ([4]; PBM-R3 IC50 relative to 0.56 μM)	IFNB, Ccl5 and Cxcl10 in BP-sgSTING cells ([5]; BP-sgSTING cells, FIG. 11D-F)	pro-inflammatory cytokines (Ifnb, Ccl5 and Cxcl10) in BP tumor cells ([5]; control medium or naive BMDM-CM, FIG. 6E)
COc1cc2cc(C(=O)CCC(=O)O)sc2cc1OC [MSA-2]	significantly higher enrichment scores	strongly up-regulated	strongly stimulated	inhibited	decreased	increased	only modest therapeutic effects	–	–	–	–	–	–
O=C(c1cc(Cc2n[nH]c(=O)c3ccccc23)ccc1F)N1CCN(C(=O)C2CC2)CC1 [olaparib]	–	–	–	–	–	–	–	significantly increased	comparable to PBM tumor cells	5.38	7.48 folds	failed to up-regulate	marked up-regulation
